Source: US20130096067A1, “DROSOPHILA TUMOR STEM CELL MODEL AND USES THEREOF” (priority 2011, published 2013)
Where two headings read alike, the source gives them in different places.

System: Raf-1^gof intestinal tumors
Settings: for Log2 (fold) (luciferase activity, log2 of the fold difference relative to DMSO controls) / Fold (luciferase activity, fold difference relative to DMSO controls): screen of 480 ICCB compounds in vials, compounds fed to flies with one-day old Raf-1^gof tumors, esg-Gal4 luciferase
[1] = ICCB compounds fed in vials to flies with one-day old Raf-1^gof tumors, assessed three days later
[2] = ICCB compounds fed in vials to flies with one-day old Raf-1^gof tumors, assessed three days later, averaged from multiple wells
[3] = assessed three days later, averaged from multiple wells
Also: test concentration or dose not given here.

Row | Compound | Log2 (fold) of luciferase activity relative to DMSO controls [1] | Fold (luciferase activity relative to DMSO controls) [2] [fold] | Log2 (fold) (luciferase activity, log2 of the fold difference relative to DMSO controls) (assessed three days later) | Fold (luciferase activity, fold difference relative to DMSO controls) [3] | other results
1 | CC(=O)C1=C(O)[C@@H]2[C@H]3c4c[nH]c5cccc(c45)C[C@H]3C(C)(C)N2C1=O [CYCLOPIAZONIC ACID] | 0.072 | 1.051 | – | – | –
2 | C/C=C/C/C=C/CCC(=O)[C@H]1O[C@H]1C(N)=O [Cerulenin] | – | – | −0.474 | 0.720 | –
3 | COc1cc(/C=C/C(=O)CC(=O)/C=C/c2ccc(O)c(OC)c2)ccc1O [Curcumin] | 0.112 | 1.081 | – | – | –
4 | CCCCC[C@H](O)C/C=C1/C(=O)C=C[C@@H]1C/C=C\CCCC(=O)O [D12-PROSTAGLANDIN J2] | – | – | – | – | Fold (luciferase activity relative to DMSO controls) (in vivo): 0.988 fold; Log2 (fold) of luciferase activity relative to DMSO controls (in vivo): −0.017
5 | O=C1CN(/N=C/c2ccc(-c3ccc([N+](=O)[O-])cc3)o2)C(O)=N1 [DANTROLENE] | −0.098 | 0.934 | – | – | –
6 | CC1=NS(=O)(=O)c2cc(Cl)ccc2N1 [DIAZOXIDE] | – | – | −0.257 | 0.837 | –
7 | NC(=NC(=O)c1nc(Cl)c(N)nc1N)NCc1ccc(Cl)c(Cl)c1 [DICHLOROBENZAMIL] | −0.116 | 0.923 | – | – | –
8 | CCCCC/C=C\C/C=C\C/C=C\CCCCCCC(=O)O [DIHOMO-GAMMA-LINOLENIC ACID] | 0.323 | 1.251 | – | – | –
9 | CCCCCCCCCCCCCCC[C@@H](O)[C@@H](N)CO [DIHYDROSPHINGOSINE] | 0.000 | 1.000 | – | – | –
10 | c1ccc2c(Cc3c[nH]c4ccccc34)c[nH]c2c1 [DIINDOLYLMETHANE] | 0.465 | 1.381 | – | – | –
11 | COc1ccc([C@@H]2Sc3ccccc3N(CCN(C)C)C(=O)[C@@H]2OC(C)=O)cc1 [DILTIAZEM] | −0.205 | 0.868 | – | – | –
12 | CC/C=C\C/C=C\C/C=C\C/C=C\C/C=C\C/C=C\CCC(=O)O [DOCOSAHEXAENOIC ACID (22:6 n-3)] | – | – | −0.248 | 0.842 | –
13 | CC/C=C\C/C=C\C/C=C\C/C=C\C/C=C\CCCCCC(=O)O [DOCOSAPENTAENOIC ACID] | −0.161 | 0.895 | – | – | –
14 | CC/C=C\C/C=C\C/C=C\CCCCCCCCCCCC(=O)O [DOCOSATRIENOIC ACID (22:3 n-3)] | −0.055 | 0.963 | – | – | –
15 | OC[C@H]1O[C@@H](n2cnc3cc(Cl)c(Cl)cc32)[C@H](O)[C@@H]1O [DRB] | – | – | −0.246 | 0.843 | –
16 | CCCCCCCCCCC1=C(C)C(=O)C(OC)=C(OC)C1=O [Decylubiquinone] | – | – | −0.442 | 0.736 | –
17 | C#CCN(C)C(C)Cc1ccccc1 (stereo not drawn) [Deprenyl] | – | – | −0.642 | 0.641 | –
18 | Cc1cccc(CCN2CCC(C(=O)c3ccc(NS(C)(=O)=O)cc3)CC2)n1 [E-4031] | −0.195 | 0.874 | – | – | –
19 | CCCCCC[C@@H]([C@@H](C)O)n1cnc2c(N)ncnc21.Cl [EHNA HCl] | – | – | −0.312 | 0.805 | –
20 | CCCCCCCCCCCC=CCC=CCCCC(=O)O [EICOSA-5,8-DIENOIC ACID (20:2 n-12)] | −0.149 | 0.902 | – | – | –
21 | CCCCC/C=C\C/C=C\CCCCCCCCCC(=O)O [EICOSADIENOIC ACID (20:2 n-6)] | −0.093 | 0.938 | – | – | –

Row | Compound | Log2 (fold) of luciferase activity relative to DMSO controls [1] | Fold (luciferase activity relative to DMSO controls) [2] [fold] | Log2 (fold) (luciferase activity, log2 of the fold difference relative to DMSO controls) (assessed three days later) | Fold (luciferase activity, fold difference relative to DMSO controls) [3] | other results
22 | CC/C=C\C/C=C\C/C=C\C/C=C\C/C=C\CCCC(=O)O [EICOSAPENTAENOIC ACID (20:5 n-3)] | 0.024 | 1.017 | – | – | –
23 | CC/C=C\C/C=C\C/C=C\CCCCCCCCCC(=O)O [EICOSATRIENOIC ACID (20:3 n-3)] | 0.198 | 1.147 | – | – | –
24 | CCCCCCCCCCCCCCCCOCC(COP(=O)([O-])OCC[N+](C)(C)C)OC(C)=O (stereo not drawn) [ENANTIO-PAF C16] | −0.051 | 0.965 | – | – | –
25 | C[C@]12CC[C@@H]3c4ccc(O)cc4CC[C@H]3[C@@H]1CC[C@@H]2O [ESTRADIOL] | −0.160 | 0.895 | – | – | –
26 | O=c1c2ccccc2[se]n1-c1ccccc1 [Ebselen] | −0.168 | 0.890 | – | – | –
27 | CC(C)=CCC/C(C)=C/CC/C(C)=C/CSCC(=O)O [FARNESYLTHIOACETIC ACID] | – | – | −0.295 | 0.815 | –
28 | N#CC(C#N)=NNc1ccc(OC(F)(F)F)cc1 [FCCP] | – | – | −0.313 | 0.805 | –
29 | C=CC[C@@H]1/C=C(\C)C[C@H](C)C[C@H](OC)[C@H]2O[C@@](O)(C(=O)C(=O)N3CCCC[C@H]3C(=O)O[C@H](/C(C)=C/[C@@H]3CC[C@@H](O)[C@H](OC)C3)[C@H](C)[C@@H](O)CC1=O)[C@H](C)C[C@@H]2OC [FK-506] | – | – | −0.699 | 0.616 | –
30 | O=C(NCC1CCCCN1)c1cc(OCC(F)(F)F)ccc1OCC(F)(F)F (stereo not drawn) [FLECAINIDE] | – | – | −0.253 | 0.839 | –
31 | O=C(O)c1ccccc1Nc1cccc(C(F)(F)F)c1 [FLUFENAMIC ACID] | – | – | −0.214 | 0.862 | –
32 | Fc1ccc(C(c2ccc(F)cc2)N2CCN(C/C=C/c3ccccc3)CC2)cc1 [FLUNARIZINE] | – | – | −0.836 | 0.560 | –
33 | O=C1NCN(c2ccccc2)C12CCN(CCCC(c1ccc(F)cc1)c1ccc(F)cc1)CC2 [FLUSPIRILINE] | −0.192 | 0.875 | – | – | –
34 | COC(=O)c1c(C)[nH]c(C)c1C(=O)c1ccccc1Cc1ccccc1 [FPL-64176] | −0.166 | 0.891 | – | – | –
35 | CCCC[C@@H](C)[C@@H](OC(=O)C[C@@H](CC(=O)O)C(=O)O)[C@H](C[C@@H](C)C[C@H](O)CCCC[C@@H](O)C[C@H](O)[C@H](C)N)OC(=O)C[C@@H](CC(=O)O)C(=O)O [Fumonisin B1] | – | – | −0.685 | 0.622 | –
36 | N#Cc1c(-c2ccccc2)no[n+]1[O-] [Furoxan] | – | – | −0.280 | 0.823 | –
37 | CCCCC/C=C\C/C=C\C/C=C\CCCCC(=O)O [GAMMA-LINOLENIC ACID (18:3 n-6)] | −0.145 | 0.904 | – | – | –
38 | CN(C)CCCn1cc(C2=C(c3c[nH]c4ccccc34)C(=O)NC2=O)c2ccccc21 [GF-109203X] | – | – | −0.238 | 0.848 | –
39 | CCCCC[C@H](O)CC(=O)CCc1ccc(O)c(OC)c1 [GINGEROL] | – | – | −0.273 | 0.827 | –
40 | Cc1cnc(C(=O)NCCc2ccc(S(=O)(=O)NC(=O)NC3CCCCC3)cc2)cn1 [GLIPIZIDE] | – | – | −0.417 | 0.749 | –
41 | COc1ccc(Cl)cc1C(=O)NCCc1ccc(S(=O)(=O)NC(=O)NC2CCCCC2)cc1 [GLYBURIDE] | – | – | −0.217 | 0.861 | –
42 | CNC(=O)[C@H](Cc1c[nH]c2ccccc12)NC(=O)[C@@H](CC(=O)NO)CC(C)C [GM6001] | 0.173 | 1.128 | – | – | –
